Measured values: paper PMC7044277 (Nature Communications, 2020)
“And” between values parts separate entries of the source, which are not always exact repeats. Identical values can stand only once.

How the values were obtained:
Format in all cases: cell-based
[1] = biological target: T1, 320 non-olfactory GPCRs (Homo sapiens, UniProt Q8IZF7)
T1 construct: expressed in transfected cells; host or cells: HTLA cells

[2] = biological target: 320 non-olfactory GPCRs (Homo sapiens, UniProt Q96PE1)
[3] = biological target: T2, 320 non-olfactory GPCRs (Homo sapiens, UniProt O14842)
T2 construct: expressed in transfected cells; host or cells: HTLA cells

[4] = biological target: T3, 320 non-olfactory GPCRs (Homo sapiens, UniProt P08173)
T3 construct: expressed in transfected cells; host or cells: HTLA cells
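Also: compound tested at 1 µM final concentration.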

320 non-olfactory GPCRs (Homo sapiens, UniProt Q96PE1), sequence (Q96PE1 34-1338): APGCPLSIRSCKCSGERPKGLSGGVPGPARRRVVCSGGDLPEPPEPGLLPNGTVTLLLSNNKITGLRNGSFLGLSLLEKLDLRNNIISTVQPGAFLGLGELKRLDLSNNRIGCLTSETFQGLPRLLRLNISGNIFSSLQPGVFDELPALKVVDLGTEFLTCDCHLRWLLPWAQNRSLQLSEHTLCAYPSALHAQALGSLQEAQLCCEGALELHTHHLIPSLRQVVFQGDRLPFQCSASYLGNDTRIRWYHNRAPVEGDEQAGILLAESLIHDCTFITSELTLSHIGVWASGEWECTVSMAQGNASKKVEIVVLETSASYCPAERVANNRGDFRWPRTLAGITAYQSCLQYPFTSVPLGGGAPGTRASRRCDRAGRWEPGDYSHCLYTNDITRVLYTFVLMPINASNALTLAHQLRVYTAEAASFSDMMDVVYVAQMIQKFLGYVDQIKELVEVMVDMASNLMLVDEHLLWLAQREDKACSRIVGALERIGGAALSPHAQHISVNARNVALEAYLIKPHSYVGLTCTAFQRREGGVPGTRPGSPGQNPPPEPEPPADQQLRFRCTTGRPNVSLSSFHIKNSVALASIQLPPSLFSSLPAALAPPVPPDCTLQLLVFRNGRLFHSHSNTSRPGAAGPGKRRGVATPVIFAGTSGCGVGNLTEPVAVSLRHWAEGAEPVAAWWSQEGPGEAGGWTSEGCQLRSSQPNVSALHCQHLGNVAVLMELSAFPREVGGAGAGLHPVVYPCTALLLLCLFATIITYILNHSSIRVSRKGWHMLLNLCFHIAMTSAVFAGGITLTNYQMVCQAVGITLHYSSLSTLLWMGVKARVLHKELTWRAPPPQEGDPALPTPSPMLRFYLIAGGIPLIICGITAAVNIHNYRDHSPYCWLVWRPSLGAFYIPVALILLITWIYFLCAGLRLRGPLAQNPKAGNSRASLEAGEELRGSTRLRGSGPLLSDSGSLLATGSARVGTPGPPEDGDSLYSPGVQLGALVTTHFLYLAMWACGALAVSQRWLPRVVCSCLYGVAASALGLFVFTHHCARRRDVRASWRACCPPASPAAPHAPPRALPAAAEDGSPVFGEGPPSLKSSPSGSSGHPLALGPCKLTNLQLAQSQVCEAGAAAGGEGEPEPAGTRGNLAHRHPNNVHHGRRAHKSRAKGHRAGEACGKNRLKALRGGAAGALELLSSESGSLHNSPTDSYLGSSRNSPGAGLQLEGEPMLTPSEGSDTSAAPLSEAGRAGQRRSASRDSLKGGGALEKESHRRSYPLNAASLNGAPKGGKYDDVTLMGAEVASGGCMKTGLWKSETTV
T3 sequence (P08173 whole entry): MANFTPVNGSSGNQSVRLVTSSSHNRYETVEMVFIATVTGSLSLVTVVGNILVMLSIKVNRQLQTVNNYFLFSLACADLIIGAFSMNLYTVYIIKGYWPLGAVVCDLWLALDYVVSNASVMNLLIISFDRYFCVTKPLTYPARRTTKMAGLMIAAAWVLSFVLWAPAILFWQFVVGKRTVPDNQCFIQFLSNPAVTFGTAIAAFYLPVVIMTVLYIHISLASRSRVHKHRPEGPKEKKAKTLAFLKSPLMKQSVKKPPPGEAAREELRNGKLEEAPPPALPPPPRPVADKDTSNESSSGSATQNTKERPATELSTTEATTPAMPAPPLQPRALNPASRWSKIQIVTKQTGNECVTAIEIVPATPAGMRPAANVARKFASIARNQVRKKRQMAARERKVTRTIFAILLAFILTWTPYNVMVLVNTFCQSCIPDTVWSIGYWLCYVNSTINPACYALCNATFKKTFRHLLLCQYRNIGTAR
T2 sequence (O14842 whole entry): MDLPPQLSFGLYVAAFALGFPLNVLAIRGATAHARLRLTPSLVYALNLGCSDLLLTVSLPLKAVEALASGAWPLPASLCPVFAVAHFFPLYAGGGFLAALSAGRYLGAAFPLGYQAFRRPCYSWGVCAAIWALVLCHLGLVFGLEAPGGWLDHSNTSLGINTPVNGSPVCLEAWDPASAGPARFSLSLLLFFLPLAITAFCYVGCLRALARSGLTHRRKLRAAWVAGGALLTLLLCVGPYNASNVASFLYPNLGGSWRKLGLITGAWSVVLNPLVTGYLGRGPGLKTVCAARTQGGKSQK
T1 sequence (Q8IZF7 whole entry): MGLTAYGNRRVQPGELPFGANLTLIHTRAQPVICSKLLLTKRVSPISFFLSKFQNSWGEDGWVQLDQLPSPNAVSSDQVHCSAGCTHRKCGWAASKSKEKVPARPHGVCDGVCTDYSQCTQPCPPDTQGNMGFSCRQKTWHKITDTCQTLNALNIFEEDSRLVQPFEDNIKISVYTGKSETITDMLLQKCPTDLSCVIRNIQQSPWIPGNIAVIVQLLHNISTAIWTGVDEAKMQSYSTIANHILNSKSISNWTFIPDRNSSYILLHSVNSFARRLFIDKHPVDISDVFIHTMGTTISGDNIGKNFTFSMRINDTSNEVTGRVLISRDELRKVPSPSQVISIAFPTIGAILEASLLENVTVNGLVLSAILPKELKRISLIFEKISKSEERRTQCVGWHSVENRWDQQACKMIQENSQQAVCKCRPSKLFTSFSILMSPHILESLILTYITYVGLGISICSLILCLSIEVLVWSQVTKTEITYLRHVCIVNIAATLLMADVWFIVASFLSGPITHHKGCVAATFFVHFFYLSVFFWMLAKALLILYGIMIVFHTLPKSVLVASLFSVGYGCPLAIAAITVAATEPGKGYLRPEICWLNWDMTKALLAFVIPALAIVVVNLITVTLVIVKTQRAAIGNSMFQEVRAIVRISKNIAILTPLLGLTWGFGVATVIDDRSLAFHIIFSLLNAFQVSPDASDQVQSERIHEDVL

For `CCOc1cccc2cc(C(C)NCC3(O)CCCCC3)oc12` (stereo not shown) [O4LE6], the “Fold of Basal” value [1] was 0.7426 and 0.9005 and 0.7298 and 0.9165, the “Fold of Basal” value [2] was 1.7314 and 1.927 and 1.697 and 1.27 and the “Fold of Basal” value [3] was 1.069 and 1.057 and 1.21 and 0.9963. The “Fold of Basal” value [4] was 0.6531 and 0.5382 and 0.5491 and 0.5885.
